Results reported in the supplement of paper PMC10307832.

Key:
Experiment in all cases: relative viability (nuclei count vs DMSO), 5 days (fraction); higher = more cells survive
NCI-H2009 = test system: NCI-H2009
In short: (§1)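 Relative viability is defined as nuclei in treated wells over nuclei in vehicle wells. Duplicate plates were run and medians reported. Lung cancer cell lines in 1536-well plates were dosed by pin tool one day after seeding, with one drug or with a fixed anchor-drug dose plus five library-drug doses (not always all listed) in √10 steps, and nuclei were counted after 5 days.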

HCC-44 = test system: HCC-44
In short: as §1

NCI-H1944 = test system: NCI-H1944
In short: as §1

NCI-H2023 = test system: NCI-H2023
In short: as §1

HCC-827 = test system: HCC-827
In short: as §1

NCI-H2228 = test system: NCI-H2228
In short: as §1

HCC-366 = test system: HCC-366
In short: as §1

COR-L23 = test system: COR-L23
In short: as §1

SW 1573 = test system: SW 1573
In short: as §1

ABC-1 = test system: ABC-1
In short: as §1

NCI-H2085 = test system: NCI-H2085
In short: as §1

LCLC-103H = test system: LCLC-103H
In short: as §1

NCI-H3122 = test system: NCI-H3122
In short: as §1

PC-14 = test system: PC-14
In short: as §1

NCI-H2347 = test system: NCI-H2347
In short: as §1

NCI-H1355 = test system: NCI-H1355
In short: as §1

NCI-H1793 = test system: NCI-H1793
In short: as §1

NCI-H2405 = test system: NCI-H2405
In short: as §1

HCC-15 = test system: HCC-15
In short: as §1

EPLC-272H = test system: EPLC-272H
In short: as §1

NCI-H1734 = test system: NCI-H1734
In short: as §1

SMILES: CN1CCN(CCOc2cc(OC3CCOCC3)c3c(Nc4c(Cl)ccc5c4OCO5)ncnc3c2)CC1 [Saracatinib] + Cc1nc(NC(=O)N2CCC[C@H]2C(N)=O)sc1-c1ccnc(C(C)(C)C(F)(F)F)c1 [Alpelisib] (partner 2 µM)
- relative viability (NCI-H2009; first compound 0.02 µM): 1.16
- relative viability (NCI-H2009; first compound 0.2 µM): 1.14
- relative viability (NCI-H2009; first compound 0.6325 µM): 1.01
- relative viability (NCI-H2009; first compound 2 µM): 0.961
- relative viability (HCC-44; first compound 0.02 µM): 0.859
- relative viability (HCC-44; first compound 0.2 µM): 0.658
- relative viability (HCC-44; first compound 0.6325 µM): 0.874
- relative viability (HCC-44; first compound 2 µM): 0.862
- relative viability (NCI-H1944; first compound 0.02 µM): 0.847
- relative viability (NCI-H1944; first compound 0.6325 µM): 0.808
- relative viability (NCI-H1944; first compound 2 µM): 0.524
- relative viability (NCI-H2023; first compound 0.02 µM): 0.62
- relative viability (NCI-H2023; first compound 0.2 µM): 0.409
- relative viability (NCI-H2023; first compound 0.6325 µM): 0.485
- relative viability (NCI-H2023; first compound 2 µM): 0.364
- relative viability (HCC-827; first compound 0.02 µM): 0.922
- relative viability (HCC-827; first compound 0.2 µM): 0.524
- relative viability (HCC-827; first compound 0.6325 µM): 0.195
- relative viability (HCC-827; first compound 2 µM): 0.157
- relative viability (NCI-H2228; first compound 0.02 µM): 0.734
- relative viability (NCI-H2228; first compound 0.2 µM): 0.562
- relative viability (NCI-H2228; first compound 0.6325 µM): 0.532
- relative viability (NCI-H2228; first compound 2 µM): 0.365
- relative viability (HCC-366; first compound 0.02 µM): 0.429
- relative viability (HCC-366; first compound 0.6325 µM): 0.272
- relative viability (HCC-366; first compound 2 µM): 0.152
- relative viability (COR-L23; first compound 0.02 µM): 0.755
- relative viability (COR-L23; first compound 0.2 µM): 0.621
- relative viability (COR-L23; first compound 0.6325 µM): 0.591
- relative viability (COR-L23; first compound 2 µM): 0.603
- relative viability (SW 1573; first compound 0.02 µM): 0.83
- relative viability (SW 1573; first compound 0.2 µM): 0.689
- relative viability (SW 1573; first compound 0.6325 µM): 0.833
- relative viability (SW 1573; first compound 2 µM): 0.51
- relative viability (ABC-1; first compound 0.02 µM): 0.854
- relative viability (ABC-1; first compound 0.2 µM): 1.06
- relative viability (ABC-1; first compound 0.6325 µM): 0.981
- relative viability (ABC-1; first compound 2 µM): 0.857
- relative viability (NCI-H2085; first compound 0.02 µM): 0.957
- relative viability (NCI-H2085; first compound 0.2 µM): 0.85
- relative viability (NCI-H2085; first compound 0.6325 µM): 0.91
- relative viability (NCI-H2085; first compound 2 µM): 0.888
- relative viability (LCLC-103H; first compound 0.02 µM): 0.972
- relative viability (LCLC-103H; first compound 0.2 µM): 0.831
- relative viability (LCLC-103H; first compound 0.6325 µM): 0.899
- relative viability (LCLC-103H; first compound 2 µM): 0.893
- relative viability (NCI-H3122; first compound 0.02 µM): 0.822
- relative viability (NCI-H3122; first compound 0.6325 µM): 0.664
- relative viability (NCI-H3122; first compound 2 µM): 0.46
- relative viability (PC-14; first compound 0.02 µM): 0.996
- relative viability (PC-14; first compound 0.2 µM): 0.681
- relative viability (PC-14; first compound 0.6325 µM): 0.46
- relative viability (PC-14; first compound 2 µM): 0.172
- relative viability (NCI-H2347; first compound 0.02 µM): 1.03
- relative viability (NCI-H2347; first compound 0.2 µM): 0.835
- relative viability (NCI-H2347; first compound 0.6325 µM): 1.12
- relative viability (NCI-H2347; first compound 2 µM): 0.902
- relative viability (NCI-H1355; first compound 0.02 µM): 0.848
- relative viability (NCI-H1355; first compound 0.2 µM): 0.833
- relative viability (NCI-H1355; first compound 0.6325 µM): 0.861
- relative viability (NCI-H1355; first compound 2 µM): 0.794
- relative viability (NCI-H1793; first compound 0.02 µM): 0.722
- relative viability (NCI-H1793; first compound 0.2 µM): 0.75
- relative viability (NCI-H1793; first compound 0.6325 µM): 0.793
- relative viability (NCI-H1793; first compound 2 µM): 0.74
- relative viability (NCI-H2405; first compound 0.02 µM): 0.796
- relative viability (NCI-H2405; first compound 0.2 µM): 0.821
- relative viability (NCI-H2405; first compound 0.6325 µM): 0.413
- relative viability (NCI-H2405; first compound 2 µM): 0.284
- relative viability (HCC-15; first compound 0.02 µM): 0.889
- relative viability (HCC-15; first compound 0.2 µM): 0.641
- relative viability (HCC-15; first compound 0.6325 µM): 0.808
- relative viability (HCC-15; first compound 2 µM): 0.759
- relative viability (EPLC-272H; first compound 0.02 µM): 1.03
- relative viability (EPLC-272H; first compound 0.2 µM): 0.732
- relative viability (EPLC-272H; first compound 0.6325 µM): 0.942
- relative viability (EPLC-272H; first compound 2 µM): 0.821
- relative viability (NCI-H1734; first compound 0.02 µM): 0.669
- relative viability (NCI-H1734; first compound 0.6325 µM): 0.646
- relative viability (NCI-H1734; first compound 2 µM): 0.507
